Source: patent US20190359653A1, “SELECTIVE PEPTIDE INHIBITORS OF FRIZZLED” (Genentech, Inc., priority 2016, published 2019)

Columns and labels:
[1] = target: T1, hFZD7 CRD-His (Homo sapiens, UniProt O75084); assay: SEC-MALS of hFZD7 CRD-His incubated with peptide; assay type: binding
T1 construct: hFZD7 CRD-His [Gln33-Gly168] was expressed as a secreted protein in Trichoplusia ni cells expressing EndoH; made in house; host or cells: Trichoplusia ni cells expressing EndoH, treated with Kifunensine (baculovirus)
Description: Samples were resolved by a Superdex S200 3.2/300 column (General Electric Healthcare Life Science, Pittsburgh, Pa.; cat. no. 28990946) at 0.15 mL/min in 150 mM NaCl, 50 mM Tris-HCl pH 7.5 buffer with 1% DMSO final concentration. Runs were performed on a 1260 infinity HPLC (Agilent Technology, Santa Clara, Calif.) connected to a Dawn Heleos-II multi-angle static Light Scattering (MALS) detector and a Optilab T-rEX differential Refractive Index (dRI) detector (Wyatt Technologies, Santa Barbara, Calif.).
Samples were resolved by a Superdex S200 3.2/300 column (General Electric Healthcare Life Science, Pittsburgh, Pa.; 28990946) at a 0.15 mL/min in 150 mM NaCl, 50 mM Tris-HCl pH 7.5 buffer with 1% DMSO final concentration. Column was connected to a 1260 infinity HPLC (Agilent Technology, Santa Clara, Calif.) connected to a Dawn Heleos-II Multi-Angle static Light Scattering (MALS) detector and the Optilab T-rEX differential Refractive Index (dRI) detectors (Wyatt Technologies, Santa Barbara, Calif.).

[2] = test system: Wnt3a-stimulated β-catenin signaling in HEK293-TB cells; assay: luciferase reporter assay, HEK293-TB cells transfected with pCDNA3.2-Wnt3a; assay type: cell-based
[3] = test system: Lgr5-GFP organoids pre-treated with CHIR99021; APC^min organoids; assay: RT-PCR in organoids with active downstream Wnt signaling (CHIR99021 or APC^min); assay type: cell-based, mouse; details: peptide 100 μM, 24 h; CHIR99021 5 μM pre-treatment or Apc mutant background
Description: Mouse organoids were established from isolated crypts collected from the entire length of the small intestine and maintained as previously described (Sato et al. (2009) Nature 459, 262-265 (2009). All mouse derived tissue was performed according to the animal use guidelines of Genentech, a Member of the Roche Group, and the Institutional Animal Care and Use Committee, conforming to California State legal and ethical practices. Mouse sex was not selected for. Organoids were passaged at least twice per week and grown using IntestiCult Organoid growth media (cat. no. 06005; StemCell Technologies). Peptides were suspended in DMSO and dissolved in media to 1% DMSO final concentration, then added to organoids to initiate drug treatment. Antibodies were added to 10 μg/ml concentration. […]
Briefly, Lgr5-GFP organoids were pre-treated with DMSO or the Gsk3β inhibitor CHIR99021 (5 μM) for 24 h, then treated with DMSO, dFz7-21 (100 μM), or Fz7-21S (100 μM)±CHIR99021. Transcripts were quantified by RT-PCR for Axin2 (FIG. 42A), and Asc12 (FIG. 42B). In a second set of experiments, APC^min organoids were cultured and treated with DMSO, dFz7-21 (100 μM), Fz7-21S (100 μM) for 24 h, and transcripts were quantified by RT-PCR for Axin2 (FIG. 42C), Asc12 (FIG. 42D), and Lgr5 ([…]).

[4] = test system: organoids derived from Lgr5-GFP mice; assay: flow cytometry of Lgr5-GFP stem cells in organoids; assay type: cell-based, mouse; details: compared to control DMSO; FIGS. 41A-41C
Description: The pharmacological effect of dFz7-21 was further investigated by conducting RNA sequencing on intestinal organoid samples that were treated with dFz7-21 for 6 and 24 h. […] Concurrently, there was also an up-regulation of enterocyte markers (pro-differentiation) in the dFz7-21 treated organoids. Among the most down regulated genes upon dFz7-21 treatment were Lgr5, Olfm4 and Asc12. […] Finally, to assess the effect of dFz7-21 directly on stem cells, the presence of GFP+ stem cells in organoids derived from Lgr5-GFP mice was monitored as described in Tian, H. et al. “A reserve stem cell population in small intestine renders Lgr5-positive cells dispensable.” Nature 478, 255-259 (2011). Treatment with dFz7-21 reduced the number of Lgr5-GFP stem cells compared to control DMSO as assayed by flow cytometry (see FIGS. 41A-41C) and confocal microscopy (data not shown). In FIGS. 41A and 41B, Lgr5-GFP organoids were dissociated, treated with SYTOX and analyzed by flow cytometry.

Sequence | ΔMW (kDa) ([1]; 1:10, relative to the DMSO control) | MW (kDa) ([1]; protein:peptide 1:10) | inhibition of Wnt3a signaling [2] | stem cell (Lgr5, Ascl2) and Wnt signaling (Axin2) markers [3] | number of Lgr5-GFP stem cells [4]
LPSDDLEFWSHVMY [Fz7-21S, negative control] | 2.6 | 23.5 | not found to inhibit |  | 
LPSDDLEFWCHVMY [dFz7-21] |  |  |  | Little or no effect | reduced
